The values that follow come from US12559506B2, “Indazole based compounds and associated methods of use” (Arvinas Operations, Inc., priority 2021, dated 2026).

Structures are written as SMILES. Like-named read-outs stand apart in the source and are kept apart here.

Assay [1] deals with T1, wildtype LRRK2 (Homo sapiens, UniProt Q5S007).
T1 construct: expressed in transfected cells; host or cells: HEK293 (ATCC CRL-1573), transient transfection, mammalian expression vector with ubiquitin promoter
Put plainly: LRRK2 degradation assay, HiBit-tagged wildtype LRRK2 expressed from plasmid in HEK293 cells (Nano-Glo Dual-Luciferase). The format is cell-based. To be noted: 24 hours; for Dmax: read-out: **WT Dmax (%); for DC50: read-out: *WT DC50. A digest of the protocol:
(§1)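 Degradation read as Nano-Glo HiBiT signal over firefly luciferase (cell number/viability) after 24 h compound exposure of transiently transfected HEK293 expressing C-terminally HiBiT-tagged wildtype or G2019S LRRK2. Data as % DMSO; DC50/Dmax fitted per plate, triplicate plates repeated twice.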

In assay [2] the target is T2, G2019S LRRK2 (Homo sapiens, UniProt Q5S007, G2019S).
T2 construct: expressed in transfected cells; host or cells: HEK293 (ATCC CRL-1573), transient transfection, mammalian expression vector with ubiquitin promoter
T2 sequence (Q5S007 whole entry G2019S): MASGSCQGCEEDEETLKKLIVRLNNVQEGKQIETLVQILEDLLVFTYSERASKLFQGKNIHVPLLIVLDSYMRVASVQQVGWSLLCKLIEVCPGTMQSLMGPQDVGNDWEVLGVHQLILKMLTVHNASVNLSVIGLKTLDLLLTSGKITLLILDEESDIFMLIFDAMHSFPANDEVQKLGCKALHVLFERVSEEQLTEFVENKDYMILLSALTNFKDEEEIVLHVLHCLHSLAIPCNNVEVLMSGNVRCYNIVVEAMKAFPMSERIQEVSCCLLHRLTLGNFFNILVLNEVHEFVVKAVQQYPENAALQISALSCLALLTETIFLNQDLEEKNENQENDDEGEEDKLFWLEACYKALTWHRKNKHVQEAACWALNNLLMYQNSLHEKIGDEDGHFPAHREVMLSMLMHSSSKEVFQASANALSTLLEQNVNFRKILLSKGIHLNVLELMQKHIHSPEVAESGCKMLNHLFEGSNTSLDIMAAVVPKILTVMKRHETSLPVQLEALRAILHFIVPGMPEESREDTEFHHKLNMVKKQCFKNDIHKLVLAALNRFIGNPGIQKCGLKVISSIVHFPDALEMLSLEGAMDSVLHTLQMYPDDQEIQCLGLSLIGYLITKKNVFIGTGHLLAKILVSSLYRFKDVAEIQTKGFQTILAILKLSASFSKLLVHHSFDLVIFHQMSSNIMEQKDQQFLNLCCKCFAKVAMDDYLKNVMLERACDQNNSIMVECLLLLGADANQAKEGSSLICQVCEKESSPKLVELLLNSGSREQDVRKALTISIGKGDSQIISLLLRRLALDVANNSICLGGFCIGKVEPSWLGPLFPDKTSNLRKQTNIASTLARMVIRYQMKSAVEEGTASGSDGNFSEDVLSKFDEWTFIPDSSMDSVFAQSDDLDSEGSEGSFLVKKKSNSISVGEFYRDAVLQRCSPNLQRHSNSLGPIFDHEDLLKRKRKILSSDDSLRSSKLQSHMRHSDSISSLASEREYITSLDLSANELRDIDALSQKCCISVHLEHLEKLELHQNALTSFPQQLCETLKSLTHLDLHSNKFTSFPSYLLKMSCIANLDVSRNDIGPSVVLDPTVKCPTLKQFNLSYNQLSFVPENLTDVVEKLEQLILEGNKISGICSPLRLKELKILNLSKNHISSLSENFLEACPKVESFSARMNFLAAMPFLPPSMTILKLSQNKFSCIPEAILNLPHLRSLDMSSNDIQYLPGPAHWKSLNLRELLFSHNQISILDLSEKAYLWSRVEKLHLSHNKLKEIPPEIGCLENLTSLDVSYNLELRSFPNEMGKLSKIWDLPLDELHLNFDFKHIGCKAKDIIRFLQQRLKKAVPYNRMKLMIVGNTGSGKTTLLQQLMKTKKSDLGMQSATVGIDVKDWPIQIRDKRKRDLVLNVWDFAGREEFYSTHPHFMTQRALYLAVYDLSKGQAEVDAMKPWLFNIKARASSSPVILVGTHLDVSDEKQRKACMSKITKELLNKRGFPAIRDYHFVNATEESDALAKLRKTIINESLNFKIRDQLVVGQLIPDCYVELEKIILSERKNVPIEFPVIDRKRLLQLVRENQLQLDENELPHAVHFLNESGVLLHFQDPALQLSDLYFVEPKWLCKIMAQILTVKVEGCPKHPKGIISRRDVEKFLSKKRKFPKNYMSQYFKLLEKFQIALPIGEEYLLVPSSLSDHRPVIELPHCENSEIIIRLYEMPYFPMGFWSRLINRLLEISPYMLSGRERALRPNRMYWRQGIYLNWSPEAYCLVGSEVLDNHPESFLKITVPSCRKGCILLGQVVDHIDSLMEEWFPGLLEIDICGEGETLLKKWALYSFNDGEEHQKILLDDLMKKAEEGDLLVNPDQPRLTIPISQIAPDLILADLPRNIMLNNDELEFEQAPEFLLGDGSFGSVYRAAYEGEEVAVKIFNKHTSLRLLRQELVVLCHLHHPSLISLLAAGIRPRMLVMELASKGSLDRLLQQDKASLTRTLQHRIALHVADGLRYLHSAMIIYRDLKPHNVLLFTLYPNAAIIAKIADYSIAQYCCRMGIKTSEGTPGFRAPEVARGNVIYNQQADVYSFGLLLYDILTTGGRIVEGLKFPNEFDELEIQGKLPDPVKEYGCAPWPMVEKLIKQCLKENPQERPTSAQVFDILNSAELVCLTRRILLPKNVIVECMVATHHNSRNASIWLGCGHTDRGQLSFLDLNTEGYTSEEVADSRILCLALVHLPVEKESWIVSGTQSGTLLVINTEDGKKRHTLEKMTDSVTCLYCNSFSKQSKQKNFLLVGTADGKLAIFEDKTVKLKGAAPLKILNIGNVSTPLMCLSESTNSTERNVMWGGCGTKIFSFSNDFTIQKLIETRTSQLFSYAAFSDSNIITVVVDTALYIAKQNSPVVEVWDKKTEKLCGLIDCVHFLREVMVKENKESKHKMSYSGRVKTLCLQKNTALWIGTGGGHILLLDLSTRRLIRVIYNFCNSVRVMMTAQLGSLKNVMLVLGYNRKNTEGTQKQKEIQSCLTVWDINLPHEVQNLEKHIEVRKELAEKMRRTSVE
Put plainly: LRRK2 degradation assay, HiBit-tagged G2019S LRRK2 expressed from plasmid in HEK293 cells (Nano-Glo Dual-Luciferase). The format is cell-based. The conditions noted are these: 24 hours. The method in brief:
as §1

Where [3] appears, read: HiBit-tagged wildtype LRRK2 in HEK293 cells.
The mark [4] stands for this setting: HiBit-tagged G2019S LRRK2 in HEK293 cells.
[5] abbreviates: HiBit-tagged wildtype LRRK2, HEK293 cells.
The mark [6] stands for this setting: HiBit-tagged G2019S LRRK2, HEK293 cells.

T1 sequence (Q5S007 whole entry): as the sequence (Q5S007 whole entry G2019S) above, with S2019G counted along it

Turning to `C[C@H]1CN(c2cc(-c3[nH]nc4ccc(OC5(C)CC5)cc34)ncn2)CCN1CC1CCN(CC2CCN(c3ccc4c(c3)CN(C3CCC(=O)NC3=O)C4=O)CC2)CC1` (stereo partly drawn) [Compound 109, 3-[5-[4-[[4-[[(2S)-2-methyl-4-[6-[5-(1-methylcyclopropoxy)-2H-indazol-3-yl]pyrimidin-4-yl]piperazin-1-yl]methyl]-1-piperidyl]methyl]-1-piperidyl]-1-oxo-isoindolin-2-yl]piperidine-2,6-dione], in assay [1] (setting [3]), the Dmax lay in the range of 50 to 70% and the 50% degradation concentration (DC50) is below 0.01 µM. In assay [2] (setting [4]), this molecule returned a half-maximal degradation concentration (DC50) below 0.01 µM and a Dmax of 50 to 70%.
For the molecule `CC1(Oc2ccc3[nH]nc(-c4cc(N5CCN(CC6CCN(CCCCNc7cccc8c7CN(C7CCC(=O)NC7=O)C8=O)CC6)CC5)ncn4)c3c2)CC1` (stereo not shown) [Compound 143, 3-[4-[4-[4-[[4-[6-[5-(1-methylcyclopropoxy)-1H-indazol-3-yl]pyrimidin-4-yl]piperazin-1-yl]methyl]-1-piperidyl]butylamino]-1-oxo-isoindolin-2-yl]piperidine-2,6-dione], the greatest degradation seen (Dmax) in assay [1] (setting [3]) was below 50%; in assay [2] (setting [4]) it was 50 to 70%. Moreover, the 50% degradation concentration (DC50) in assay [1] (setting [3]) and in assay [2] (setting [4]) was 0.01 to 0.05 µM throughout.
On to `C[C@H]1CN(c2cc(-c3[nH]nc4ccc(OC5(C)CC5)cc34)ncn2)CCN1CC1CCN(CC2CCN(c3cccc4c3CN(C3CCC(=O)NC3=O)C4=O)CC2)CC1` (stereo partly drawn) [Compound 145, 3-[4-[4-[[4-[[(2S)-2-methyl-4-[6-[5-(1-methylcyclopropoxy)-2H-indazol-3-yl]pyrimidin-4-yl]piperazin-1-yl]methyl]-1-piperidyl]methyl]-1-piperidyl]-1-oxo-isoindolin-2-yl]piperidine-2,6-dione], for which the Dmax in assay [1] (setting [3]) is below 50%; in assay [2] (setting [4]), 50 to 70%. For the same molecule, the DC50 in assay [1] (setting [3]) and in assay [2] (setting [4]) was below 0.01 µM in each case.
Take `CC1(Oc2ccc3[nH]nc(-c4cc(N5CCC(CN6CC[C@@H](OC7CCN(c8ccc9c(c8)C(=O)N(C8CCC(=O)NC8=O)C9=O)CC7)C6)CC5)ncn4)c3c2)CC1` (stereo partly drawn) [Compound 119, 2-(2,6-dioxopiperidin-3-yl)-5-(4-{[(3R)-1-[(1-{6-[5-(1-methylcyclopropoxy)-1H-indazol-3-yl]pyrimidin-4-yl}piperidin-4-yl)methyl]pyrrolidin-3-yl]oxy}piperidin-1-yl)-2,3-dihydro-1H-isoindole-1,3-dione]: in assay [1] (setting [3]), the Dmax was below 50% and the DC50 is below 0.01 µM. For the same molecule, in assay [2] (setting [4]), the 50% degradation concentration (DC50) is below 0.01 µM and the Dmax is below 50%.
Take `CC1(Oc2ccc3[nH]nc(-c4cc(N5CCN(CC67CC(CN8CCN(c9ccc%10c(c9)C(=O)N(C9CCC(=O)NC9=O)C%10=O)CC8)(C6)C7)CC5)ncn4)c3c2)CC1` (stereo not shown) [Compound 124, 2-(2,6-dioxo-3-piperidyl)-5-[4-[[3-[[4-[6-[5-(1-methylcyclopropoxy)-2H-indazol-3-yl]pyrimidin-4-yl]piperazin-1-yl]methyl]-1-bicyclo[1.1.1]pentanyl]methyl]piperazin-1-yl]isoindoline-1,3-dione]: the Dmax in assay [1] (setting [3]) and in assay [2] (setting [4]) was below 50% in each case. Also, the DC50 was below 0.01 µM in assay [1] (setting [3]) and 0.01 to 0.05 µM in assay [2] (setting [4]).
On to `CC1(Oc2ccc3[nH]nc(-c4cc(N5CCN(C[C@@H]6CN(CCC7CCN(c8ccc9c(c8)C(=O)N(C8CCC(=O)NC8=O)C9=O)CC7)CCO6)CC5)ncn4)c3c2)CC1` (stereo partly drawn) [Compound 158, 2-(2,6-dioxo-3-piperidyl)-5-[4-[2-[(2R)-2-[[4-[6-[5-(1-methylcyclopropoxy)-1H-indazol-3-yl]pyrimidin-4-yl]piperazin-1-yl]methyl]morpholin-4-yl]ethyl]-1-piperidyl]isoindoline-1,3-dione], for which, in assay [1] (setting [5]), the Dmax is at least 70% and the half-maximal degradation concentration (DC50) is below 0.01 µM. In assay [2] (setting [6]), this molecule returned a DC50 below 0.01 µM and a maximal degradation (Dmax) of at least 70%.
Turning to `CC1(Oc2ccc3[nH]nc(-c4ccnc(N5CCC(C(=O)N6CCC(CC7CCN(c8ccc9c(c8)C(=O)N(C8CCC(=O)NC8=O)C9=O)CC7)CC6)CC5)c4)c3c2)CC1` (stereo not shown) [Compound 89, 2-(2,6-dioxopiperidin-3-yl)-5-(4-{[1-(1-{4-[5-(1-methylcyclopropoxy)-1H-indazol-3-yl]pyridin-2-yl}piperidine-4-carbonyl)piperidin-4-yl]methyl}piperidin-1-yl)-2,3-dihydro-1H-isoindole-1,3-dione], in assay [1] (setting [3]), the maximal degradation (Dmax) was below 50% and the half-maximal degradation concentration (DC50) fell in the range of 0.01 to 0.05 µM. In assay [2] (setting [4]), this molecule registered a 50% degradation concentration (DC50) of 0.01 to 0.05 µM and a Dmax below 50%.
With `CC1(Oc2ccc3[nH]nc(-c4ccnc(N5CCC(CN6CCN(C(=O)C7CCN(c8ccc9c(c8)C(=O)N(C8CCC(=O)NC8=O)C9=O)CC7)CC6)CC5)c4)c3c2)CC1` (stereo not shown) [Compound 95, 2-(2,6-dioxopiperidin-3-yl)-5-(4-{4-[(1-{4-[5-(1-methylcyclopropoxy)-1H-indazol-3-yl]pyridin-2-yl}piperidin-4-yl)methyl]piperazine-1-carbonyl}piperidin-1-yl)-2,3-dihydro-1H-isoindole-1,3-dione], the Dmax in assay [1] (setting [3]) and in assay [2] (setting [4]) was 50 to 70% each time. The DC50 in assay [1] (setting [3]) and in assay [2] (setting [4]) was below 0.01 µM in each case.
For `CC1(Oc2ccc3n[nH]c(-c4cc(N5CCN(Cc6ccc(CN7CCN(c8ccc9c(c8)C(=O)N(C8CCC(=O)NC8=O)C9=O)CC7)nn6)CC5)ncn4)c3c2)CC1` (stereo not shown) [Compound 172, 2-(2,6-dioxo-3-piperidyl)-5-[4-[[6-[[4-[6-[5-(1-methylcyclopropoxy)-2H-indazol-3-yl]pyrimidin-4-yl]piperazin-1-yl]methyl]pyridazin-3-yl]methyl]piperazin-1-yl]isoindoline-1,3-dione], the Dmax in assay [1] (setting [5]) and in assay [2] (setting [6]) was 50 to 70% throughout. Further, the DC50 in assay [1] (setting [5]) and in assay [2] (setting [6]) was below 0.01 µM in each case.
Turning to `CC1(Oc2ccc3n[nH]c(-c4ccnc(N5CCN(C(=O)C6CCN(CC7CCN(c8ccc9c(c8)C(=O)N(C8CCC(=O)NC8=O)C9=O)CC7)CC6)CC5)c4)c3c2)CC1` (stereo not shown) [Compound 85, 2-(2,6-dioxo-3-piperidyl)-5-[4-[[4-[4-[4-[5-(1-methylcyclopropoxy)-2H-indazol-3-yl]-2-pyridyl]piperazine-1-carbonyl]-1-piperidyl]methyl]-1-piperidyl]isoindoline-1,3-dione], the Dmax in assay [1] (setting [3]) and in assay [2] (setting [4]) was below 50% throughout. For the same molecule, the half-maximal degradation concentration (DC50) in assay [1] (setting [3]) and in assay [2] (setting [4]) was below 0.01 µM each time.
As for `CC1(Oc2ccc3[nH]nc(-c4cc(N5CCN(CCN6CCN(CC7CCN(c8ccc9c(c8)C(=O)N(C8CCC(=O)NC8=O)C9=O)CC7)CC6)CC5)ncn4)c3c2)CC1` (stereo not shown) [Compound 54, 2-(2,6-dioxopiperidin-3-yl)-5-[4-({4-[2-(4-{6-[5-(1-methylcyclopropoxy)-1H-indazol-3-yl]pyrimidin-4-yl}piperazin-1-yl)ethyl]piperazin-1-yl}methyl)piperidin-1-yl]-2,3-dihydro-1H-isoindole-1,3-dione], in assay [1] (setting [3]), the greatest degradation seen (Dmax) is at least 70% and the DC50 was below 0.01 µM. In assay [2] (setting [4]), this molecule showed a half-maximal degradation concentration (DC50) below 0.01 µM and a Dmax of at least 70%.
`CC1(Oc2ccc3[nH]nc(-c4cc(N5CCO[C@H](CN6CCN(CC7CCN(c8ccc9c(c8)C(=O)N(C8CCC(=O)NC8=O)C9=O)CC7)CC6)C5)ncn4)c3c2)CC1` (stereo partly drawn) [Compound 152, 2-(2,6-dioxo-3-piperidyl)-5-[4-[[4-[[(2R)-4-[6-[5-(1-methylcyclopropoxy)-1H-indazol-3-yl]pyrimidin-4-yl]morpholin-2-yl]methyl]piperazin-1-yl]methyl]-1-piperidyl]isoindoline-1,3-dione]: in assay [1] (setting [5]), the Dmax is below 50% and the DC50 was below 0.01 µM. In assay [2] (setting [6]), this molecule yielded a 50% degradation concentration (DC50) below 0.01 µM and a Dmax below 50%.
Consider `CC1(Oc2ccc3n[nH]c(-c4cc(N5CCC(Cc6cccc(CC7CCN(c8ccc9c(c8)C(=O)N(C8CCC(=O)NC8=O)C9=O)CC7)c6)CC5)ncn4)c3c2)CC1` (stereo not shown) [Compound 174, 2-(2,6-dioxo-3-piperidyl)-5-[4-[[3-[[1-[6-[5-(1-methylcyclopropoxy)-2H-indazol-3-yl]pyrimidin-4-yl]-4-piperidyl]methyl]phenyl]methyl]-1-piperidyl]isoindoline-1,3-dione], for which the DC50 in assay [1] (setting [5]) and in assay [2] (setting [6]) was at least 0.1 µM each time.
In the case of `CC1(Oc2ccc3[nH]nc(-c4cc(N5CCC(CN6CC(CN7CCN(c8ccc9c(c8)C(=O)N(C8CCC(=O)NC8=O)C9=O)CC7)C6)CC5)ncn4)c3c2)CC1` (stereo not shown) [Compound 125, 2-(2,6-dioxo-3-piperidyl)-5-[4-[[11-[[1-[6-[5-(1-methylcyclopropoxy)-1H-indazol-3-yl]pyrimidin-4-yl]-4-piperidyl]methyl]azetidin-3-yl]methyl]piperazin-1-yl]isoindoline-1,3-dione], in assay [1] (setting [3]), the maximal degradation (Dmax) is 50 to 70% and the 50% degradation concentration (DC50) is below 0.01 µM. In assay [2] (setting [4]), this molecule showed a DC50 below 0.01 µM and a maximal degradation (Dmax) of 50 to 70%.
In the case of `CC1(Oc2ccc3[nH]nc(-c4cc(N5C[C@@H]6[C@H](CN7CCN(CC8CCN(c9ccc%10c(c9)C(=O)N(C9CCC(=O)NC9=O)C%10=O)CC8)CC7)[C@@H]6C5)ncn4)c3c2)CC1` (stereo partly shown) [Compound 74, 2-(2,6-dioxo-3-piperidyl)-5-[4-[[4-[[(r, 5s, 6s)-3-[6-[5-(1-methylcyclopropoxy)-1H-indazol-3-yl]pyrimidin-4-yl]-3-azabicyclo[3.1.0]hexan-6-yl]methyl]piperazin-1-yl]methyl]-1-piperidyl]isoindoline-1,3-dione], the Dmax was 50 to 70% in assay [1] (setting [3]) and below 50% in assay [2] (setting [4]). Moreover, the half-maximal degradation concentration (DC50) in assay [1] (setting [3]) and in assay [2] (setting [4]) was 0.05 to 0.1 µM in each case.
